Data published in PMC11967820, “Deep Learning Combined with Quantitative Structure‒Activity Relationship Accelerates De Novo Design of Antifungal Peptides” (Advanced Science, 2025).
Like-named read-outs stand apart in the source and are kept apart here. No end group written: not given here.

How the values were obtained:
[1] = test system: human red blood cells (HRBCs); conditions: for MHC5, minimal hemolytic concentration that results in 5% human erythrocyte hemolysis: 2% fresh human red blood cells in saline, 37 °C, 30 min, absorbance 540 nm, mean ± SD, n = 3; for TI, therapeutic index against C. albicans: TI = MHC5/MIC100 (C. albicans)
Description: A 2% fresh human red blood cells (HRBCs) suspension was used in the hemolysis assay of c_AFPs.^[ [48], [50] ^] The c_AFPs solution was prepared in saline with a concentration range of 0–0.5 mg mL^−1. Then, 2% HRBCs suspension was incubated with different concentrations of c_AFPs in a 96‐well plate (37 °C, 30 min). […] Saline was used as a negative control, and Triton X‐100 (1%) was used as a positive control. Each experiment was replicated three times.

[2] = test system: fluconazole‐resistant C. albicans; conditions: 1 × 10^6 CFU mL^−1, 28 °C, 12 h, then plated on SD agar 37 °C, 16 h
Description: Fluconazole‐resistant C. albicans was prepared following the established methods.^[ [23], [51], [52] ^]

[3] = test system: C. albicans; experiment: Resistance induction by continuous passaging culture; assay type: cell-based, Candida albicans; conditions: for change of MIC on continuous passaging: SD broth, 24 h per generation, 28 °C
Description: The resistance tendency of c_AFPs developed in C. albicans was assessed utilizing a continuous passaging culture.^[ [23], [51] ^] […] Subsequently, 20 µL of culture was transferred to a fresh SD broth with the same concentration of c_AFPs/antibiotic. The concentrations of c_AFPs/antibiotic in the SD broth were doubled every 10 generations, and the MICs of the c_AFPs/antibiotic were detected every 5 generations. Each 24‐hour incubation was considered one generation. PBS (pH 6.0) was used as a blank control, and fluconazole was used as an antibiotic control. Each experiment was performed three times.

[4] = test system: C. albicans; conditions: 0.12 mg kg^−1 intraperitoneally
Description: The systemic C. albicans infection mouse model was established following the reported reference.^[ [22] ^] Cyclophosphamide (150 mg kg^−1 d^−1) was first injected intraperitoneally for 3 days to disrupt the immunity of female Kunming mice (Experimental Animal Center of Zhengzhou University, SCXK Yu 2021–0009). […] The injections were given once every 24 h during the first week and once every 48 h during the second week. Survival rates and body weights of the mice in each group were recorded during treatment. At 0, 7, and 14 d of treatment, duplicate samples (n = 3) of the spleen and thymus were collected from each group to determine the immune organ index.^[ [54] ^] The ratio of organ weight to body weight was adopted to describe the immune organ index. At 14 d of treatment, liver, lung, kidney, and spleen tissues were collected from each group of mice and immersed in 4% paraformaldehyde fixative. Subsequently, the tissue samples were embedded in paraffin, followed by sectioned and stained with hematoxylin‐eosin (H&E). Finally, optical microscopy was used to observe the pathological changes in the organ tissues of the mice.

[5] = Day 7, fluconazole group, n = 3

Row | Compound | MHC5, minimal hemolytic concentration that results in 5% human erythrocyte hemolysis [1] [µg/mL] | TI, therapeutic index against C. albicans [1] | minimum fungicidal concentration (MFC) against fluconazole‐resistant C. albicans [2] [× MIC] | change of MIC on continuous passaging ([3]; 25th generation) | change of MIC on continuous passaging ([3]; 40th generation) | MIC ([3]; Candida albicans, read-out: MIC of fluconazole against C. albicans) [µg/mL] | change of MIC on continuous passaging ([3]; first 20 generations, 0.5 × MIC doubled every 10 generations) | splenic index [4, 5] [mg/g] | thymic index [4, 5] [mg/g] | thymic index ([4]; Day 14, fluconazole group, n = 3) [mg/g] | average increased weight after 14 days of treatment ([4]; fluconazole group, n = 10) [g]
1 | VRWRIRLIRKLA-NH2 [AFP‐13] | 99.50 ± 3.28 | 15.89 | 2 | – | – | – | – | – | – | – | –
2 | RLWRIVLIRKAR-NH2 [AFP‐11] | 46.51 ± 2.24 | 6.22 | 8 | – | – | – | – | – | – | – | –
3 | RLWRIVVIRRAR-NH2 [AFP‐8] | 41.81 ± 1.88 | 5.45 | 4 | – | – | – | – | – | – | – | –
4 | RLWRIVLIRRAK-NH2 [AFP‐10] | 48.11 ± 1.54 | 13.71 | 2 | – | – | – | – | – | – | – | –
5 | OC(Cn1cncn1)(Cn1cncn1)c1ccc(F)cc1F [fluconazole] | – | – | > 50 | increased twofold | eightfold | 1.9 | remained unchanged | 9.89 | 2.45 | 5.16 | 8.16
